As a reminder, the solubility is the concentration that dissolves in the medium under given conditions. The low end stands for little dissolved substance, the high end for much dissolved substance. A word on the EC50: it is the concentration at which the effect is half-maximal. As a reminder, the IC50 is the concentration at which inhibition is half-maximal. The low end stands for greater potency, the high end for weaker potency. Usually half-life stands for the time in which the quantity being followed falls by half. For orientation: clearance means the volume of plasma or blood freed of the substance per unit of time. One may read the bioavailability as dose-corrected exposure relative to a reference, in per cent. A higher bioavailability goes with good availability.

The source of these data is ChEMBL document CHEMBL1141473, “Tricyclic HIV integrase inhibitors: potent and orally bioavailable C5-aza analogs” (Bioorg Med Chem Lett, 2008).

A short description of data set [1]: Aqueous solubility at pH 7.3. The class given is physicochemical.
Data set [2] deals with Human immunodeficiency virus. Put plainly: Antiviral activity against HIV in MT2 cells in presence of 35 mg/mL human serum albumin. The class given is functional, organism-based. Conditions: Human immunodeficiency virus 1, MT2.
The nature of data set [3]: Inhibition of HIV integrase strand transfer activity. Set-up: species or system Human immunodeficiency virus.
Data set [4] concerns Human immunodeficiency virus 1. Put plainly: Antiviral activity against HIV1 3B in MT2 cells after 5 days. The class given is functional, organism-based. Conditions: Human immunodeficiency virus 1, 3B, MT2, 120 h.
Data set [5] is described as follows: Half life in iv dosed rat. Type of data set: ADME, organism-based. Conditions: in vivo.
Data set [6] can be described thus: Total clearance in iv dosed dog. Type of data set: ADME, organism-based, Canis lupus familiaris. The settings on record: in vivo.
Data set [7] in a line: Oral bioavailability in dog. Type of data set: ADME, organism-based, Canis lupus familiaris. Conditions: in vivo.
Data set [8] is described as follows: Oral bioavailability in rat. The class given is ADME, organism-based. The settings on record: in vivo.
Data set [9] can be described thus: Half life in iv dosed dog. Type of data set: ADME, organism-based, Canis lupus familiaris. The settings on record: in vivo.
Data set [10] in a line: Total clearance in iv dosed rat. Conditions: in vivo. The class given is ADME, organism-based.

Converted amounts (≈) assume the structure as drawn.

For the molecule `O=C1c2c(c(N3CCCS3(=O)=O)c3cccnc3c2O)CN1Cc1ccc(F)cc1`, in [1], the concentration in solution (solubility) came to 2.8 µM (≈ 1.2 µg/mL). The half-maximal effective concentration (EC50) turned out to be 49 nM in data set [2] and 1.4 nM in data set [4]. For the same molecule, in data set [3], the midpoint of inhibition, the IC50, lay at 13 nM. The half-life in data set [5] was 36 min; in [9] it was 48 min. The results for the clearance in data set [6] and in data set [10] were 5 mL/min/kg and 25.5 mL/min/kg, respectively. Besides, the bioavailability worked out at 8.3% in data set [7] and 4% in data set [8].

Regarding `Cc1nnc(C(=O)NC(C)(C)c2nc(C(=O)NCc3ccc(F)cc3)c(O)c(=O)n2C)o1`, the IC50 in data set [3] worked out at 27 nM. In addition, a half-maximal effect in data set [4] (EC50) was put at 6 nM.

Turning to `CN(C)C(=O)C(=O)N(C)c1c2c(c(O)c3ncccc13)C(=O)N(Cc1ccc(F)cc1)C2`, it took 265 nM to reach half-maximal inhibition in data set [3] (IC50). The molecule also registered an EC50 in data set [4] of 31 nM.

Regarding `CN(C)C(=O)N(C)c1c2c(c(O)c3ncccc13)C(=O)N(Cc1ccc(F)cc1)C2`, the concentration in solution in data set [1] (solubility) was 844 µM (≈ 345 µg/mL). The molecule also had an IC50 in [3] of 71 nM. In data set [4], this molecule returned an EC50 of 10 nM.

Regarding `O=C1c2c(c(C(=O)N3CCOCC3)c3cccnc3c2O)CN1Cc1ccc(F)cc1`, the EC50 in data set [2] was 54 nM. Also, the IC50 in data set [3] came out at 50 nM.

On to `CN(C)S(=O)(=O)N(C)c1c2c(c(O)c3ncccc13)C(=O)N(Cc1ccc(F)cc1)C2`, for which, in [1], the solubility was determined as 4.5 µM (≈ 2 µg/mL). Moreover, the EC50 came to 8.4 nM in [2] and 3.1 nM in data set [4]. The IC50 in data set [3] was 62 nM. In addition, the results for the half-life in [5] and in data set [9] were 54 min and 270 min, respectively. Further, the clearance in [6] is 5.67 mL/min/kg; in [10], 3.83 mL/min/kg. The values for the bioavailability in [7] and in [8] were 16% and 13%, respectively.

In turn, `CC(=O)N(C)c1c2c(c(O)c3ncccc13)C(=O)N(Cc1ccc(F)cc1)C2` had an IC50 in data set [3] of 100 nM. Further, in [4], a half-maximal response (EC50) required 47 nM.
